Measurements taken from patent US20040033252A1, “Agents for recoverying from or preventing fatigue in the central nerve system and foods for recovering from or preventing fatigue” (priority 2000, published 2004).

What was measured:
[1] = tested on: tryptophan-deficient rats; test: Treadmill running test to exhaustion in tryptophan-deficient rats (Evaluation Test 2); assay type: in vivo, rat; conditions: i.p. 1 h before running, BCH 150 mg/kg, BCAA 250 mg/kg, mean ± standard error
Text: Three-week-old female rats of Sprague-Dawley-type (each rat: 50 g) were raised for one month to a weight of 200 g [fed with normal food of AIN93G for one month (standard refined feed, made by Oriental Yeast, Co., Ltd., with the tryptophan being contained at 2.3 g/kg)], and from this time on, these were fed with the tryptophan-deficient food (adjusted feed in which only the tryptophan was removed from the above-mentioned AIN93G, with corn starch being used for compensating for the corresponding portion) for 16 days to form the tryptophan-deficient rats. Amino acids, contained in the normal food AIN93G, were respectively manufactured by AJINOMOTO CO., INC., and the respective contents (g) in 1 kg of feed were: alanine 5.6, arginine 6.8, aspartic acid 13.1, cystine 3.9, glutamic acid 39.6, glycine 3.4, histidine 5.6, isoleucine 10.1, leucine 17.5, lysine 14.9, methionine 5.6, phenyl alanine 9.5, proline 21.6, serine 9.7, threonine 7.7, tryptophan 2.3 (only contained in the tryptophan-containing food), tyrosine 10.4, and valine 12.6 (each of the amino acids having a purity of 100%). […] After the training had been completed, the rats were subjected to running loads on the treadmill at a speed of 20 m/min (inclination: 7%) up to exhaustion, and the running time was evaluated as the fatigue tests shown below. […]

[2] = tested on: tryptophan-deficient rats; test: Treadmill running test to exhaustion in tryptophan-deficient rats given tryptophan-added food (Evaluation Test 3); assay type: in vivo, rat
Text: Three-week-old female rats of Sprague-Dawley-type (each rat: 50 g) were raised for one month to a weight of 200 g [fed with normal food of AIN93G for one month (standard refined feed, made by Oriental Yeast, Co., Ltd., with the tryptophan being contained at 2.3 g/kg)], and from this time on, these were fed with the tryptophan-deficient food (adjusted feed in which only the tryptophan was removed from the above-mentioned AIN93G, with corn starch being used for compensating for the corresponding portion) for 16 days to form the tryptophan-deficient rats. Amino acids, contained in the normal food AIN93G, were respectively manufactured by AJINOMOTO CO., INC., and the respective contents (g) in 1 kg of feed were: alanine 5.6, arginine 6.8, aspartic acid 13.1, cystine 3.9, glutamic acid 39.6, glycine 3.4, histidine 5.6, isoleucine 10.1, leucine 17.5, lysine 14.9, methionine 5.6, phenyl alanine 9.5, proline 21.6, serine 9.7, threonine 7.7, tryptophan 2.3 (only contained in the tryptophan-containing food), tyrosine 10.4, and valine 12.6 (each of the amino acids having a purity of 100%). These rats were subjected to training for 30 minutes at a speed of 20 m/min (inclination: 7%) by treadmill running practice, three times a week, which started at the age of 3 weeks old, and lasted for 2 months. After the training had been completed, the rats were subjected to running loads on the treadmill at a speed of 20 m/min (inclination: 7%) up to exhaustion, and the running time was evaluated as the fatigue tests shown below. […] The evaluation was made by using inter-group comparisons (with paired t-test) of a Student's t-test.
To the tryptophan-deficient rats that had been subjected to the above-mentioned training were respectively given tryptophan-added food (AIN93G to which 2.3 g/kg of the tryptophan was added), and were then given physiological saline, a mixture of the BCH and the BCAA, the BCH and the BCAA, and comparison tests were carried out among the four groups. […]

[3] = tested on: striatal synaptosome of analbuminemia rats; test: Tryptophan and metabolites in striatal synaptosome immediately after exhaustion (HPLC, electrochemical detector); assay type: in vivo, rat; conditions: for Concentration of 5-HIAA in striatal synaptosome / Concentration of 5-HT in striatal synaptosome / Concentration of 5-HTP in striatal synaptosome / Concentration of tryptophan in striatal synaptosome: NAR, immediately after exhaustion, mean ± SEM
Protocol: The head of each of the rats was sacrificed by decapitation immediately after the training so that the striatal synaptosome was separated, and tryptophan(Trp), 5-hydroxytryptophan (5-HTP), 5-hydroxytryptamin (5-HT) and 5-hydroxyindoleacetic acid (5-HIAA) were measured by high-performance liquid chromatography using an electrochemical detector. Moreover, the protein level in the P2 fraction was measured in accordance with the method of Lowry et al. (J. Protein measurements with the Folin phenol reagent, J. Biol. Chem. 193: 265-275; 1951).
(§1) These measured data were obtained by a analysis of variance (ANOVA) in one-way layout of Fisher's PLSD test by using multiple comparisons and repeated measurements, based upon the standard error. Next, the data were classified based upon running times, and analyzed by the Student's t-test based upon observation with paired t-test in the total effects of the BCAA and BCH treatment groups.

analbuminemia rats = test: Treadmill running test to exhaustion in analbuminemia rats (fatigue test); assay type: in vivo, rat; conditions: NAR; for Running time up to exhaustion: i.p., BCH 8 mg/kg and BCAA 250 mg/kg 1 h before running, albumin 1 g/kg 1.5 h before, mean ± SEM
Protocol: Three-week-old female analbuminemia rats (Japan SLC) that genetically lacked albumin in their blood plasma, which had been raised under light and dark cycles of 7:00 to 19:00 (light cycle) at room temperature 22° C., were subjected to the fatigue tests. Prior to the fatigue tests, the analbuminemia rats were subjected to training (20 m/min, 7% inclination) for 30 minutes, four times a week, during a predetermined period of time in 13:00 to 15:00, and this training lasted for four weeks so as to adapt them to running on the treadmill. After the training had been completed, all the analbuminemia rats (weight 210 to 255 g) were subjected to exhaustion tests on the treadmill under the same conditions, and time up to an exhaustion state was measured.
The rats, which were divided into four groups, were respectively treated with physiological saline (made by Otsuka Pharmaceutical Co., Ltd “0.9% physiological saline”), the BCH (made by Sigma K.K., NoA7902), the BCAA and albumin (made by Sigma K.K. A-6272 (Fraction V)). The dose of physiological saline was set to 5 ml/kg, that of the BCH was 8 mg/kg and that of the BCAA was 250 mg/kg, and these were given into the abdominal cavity one hour prior to the start of the running tests. Here, BCH, BCAA and albumin were respectively dissolved in physiological saline, and then administered. The dose of albumin was set to 1 g/kg, and given into the abdominal cavity one and half hours prior to the start of […]. […] These doses were determined so as to obtain sufficient effects, and in the case of actual doses to the human being, these can be changed appropriately depending on various factors.
as §1

rats = conditions: tryptophan 1 mM/30 min continuously injected into the brain; cited from earlier work

Compound	Running time up to exhaustion [1]	Running time of single rats that have not reached exhaustion ([2]; BCH only-administration, two cases)	Running time up to exhaustion ([2]; tryptophan-deficient rats given tryptophan-added food, doses as in evaluation test 2, i.p. 1 h before, mean ± standard error, values >542 set as 542)	Running-time difference versus physiological saline group (average-value comparison) ([2]; tryptophan-deficient rats given tryptophan-containing food, not statistically significant)	Change in uptake of 5-HTP into striatal synaptosome versus physiological saline group ([3]; BCAA and BCH treated groups totaled, group B (time to exhaustion 190 to 271 minutes), p<0.025)	Change in uptake of tryptophan into striatal synaptosome versus physiological saline group ([3]; BCAA and BCH treated groups totaled, group B (time to exhaustion 190 to 271 minutes), p<0.05)	Concentration of 5-HIAA in striatal synaptosome [3]	Concentration of 5-HT in striatal synaptosome [3]	Concentration of 5-HTP in striatal synaptosome [3]	Concentration of tryptophan in striatal synaptosome [3]	Extension of running time relative to physiological saline (analbuminemia rats; from Table 1)	Running time up to exhaustion (analbuminemia rats)	Onset of fatigue in the central nervous system or muscles (rats)
NC1(C(=O)O)CC2CCC1C2 (stereo not drawn) [BCH, 2-aminobicyclo-[2,2,1]-heptane-2-carboxylic acid]	308 ± 22 min	524 minutes and not less than 524 minutes	428 ± 45 min	approximately 40 minutes	−23%	−19%	3.58 ± 0.21 pmol/mg protein	5.20 ± 0.79 pmol/mg protein	1.25 ± 0.17 pmol/mg protein	53.43 ± 10.50 pmol/mg protein	approximately twice as long	188 ± 33 min	
N[C@@H](Cc1c[nH]c2ccccc12)C(=O)O [tryptophan]													exhibit the fatigue in the central nervous system or muscles in very early stage
Albumin: albumin made by Sigma K.K. A-6272 (Fraction V)							3.30 ± 0.06 pmol/mg protein	5.00 ± 0.47 pmol/mg protein	1.45 ± 0.18 pmol/mg protein	52.41 ± 8.97 pmol/mg protein		96 ± 22 min	
